Several values for one entry are separate records, joined by “and”; a condition that tells them apart may be missing. Identical values can stand only once.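 Where inhibition never reached the appropriate level, the endpoint shown equals the highest concentration tested. Otherwise, values were interpolated linearly from a five-concentration, 48-hour dose response in 96-well plates. GI50 = concentration required for 50% inhibition of growth. TGI denotes the concentration required for complete inhibition of growth.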
Key:
Experiment in all cases: growth of human tumour cells (NCI), 48 h
[1] = system: SF-539 CNS
[2] = system: UACC-62 melanoma
[3] = system: MALME-3M melanoma
[4] = system: UACC-257 melanoma
[5] = system: NCI-H23 lung
[6] = system: HT29 colon
[7] = system: SN12C renal
[8] = system: OVCAR-4 ovarian
[9] = system: MOLT-4 leukemia
[10] = system: M14 melanoma
[11] = system: NCI-H460 lung
[12] = system: HOP-92 NSCLC
[13] = system: T-47D breast
[14] = system: CAKI-1 renal

Row | SMILES | TGI [1] | TGI [2] | TGI [3] | TGI [4] | TGI [5] | TGI [6] | TGI [7] | TGI [8] | TGI [9] | TGI [10] | TGI [11] | TGI [12] | TGI [13] | TGI [14] | GI50 [3] | GI50 [5] | GI50 [8] | GI50 [11]
1 | Cc1ccccc1NC(=O)CSc1nnc(Cc2ccccc2)o1 | > 100 µM | > 100 µM | > 100 µM | > 100 µM | > 100 µM | > 100 µM | > 100 µM | > 100 µM | > 100 µM | > 100 µM | > 100 µM |  |  |  |  |  |  | 
2 | NCCCCCNOCCCN | > 100 µM | > 100 µM | > 100 µM | > 100 µM | > 100 µM | > 100 µM | > 100 µM | > 100 µM | > 100 µM | > 100 µM | > 100 µM | > 100 µM | > 100 µM |  |  |  |  | 
3 | Cc1ccc(-n2cc(-c3ccc(Cl)cc3)c(C#N)c2N)cc1 | 30.9 µM | 29.9 µM | 33.1 µM | 27.9 µM | 31.5 µM | 27 µM | 28 µM | 28.4 µM |  | 28.7 µM | 30.4 µM | 31.5 µM |  | 45.3 µM |  |  |  | 
4 | Cc1[nH]c2ccccc2c1C1=CC(=O)N(c2ccccc2)C1=O | 27.1 µM | 26.9 µM | 41.9 µM | 61.5 µM | 60.9 µM | 21.8 µM | 86 µM |  | > 100 µM | 32.2 µM | 39.4 µM | 50.9 µM |  | > 100 µM |  |  |  | 
5 | Cc1nc2nn(C)cc2c(=O)n1/N=C/c1ccccc1 | > 100 µM | > 100 µM | > 100 µM | > 100 µM | > 100 µM | > 100 µM | > 100 µM | > 100 µM | > 100 µM |  | > 100 µM |  |  |  |  |  |  | 
6 | COc1nc(OC)nc(Sc2ccc(Sc3ccc(Sc4nc(OC)nc(OC)n4)cc3)cc2)n1 | > 100 µM | > 100 µM | > 100 µM | > 100 µM | > 100 µM | > 100 µM | > 100 µM | > 100 µM | > 100 µM | > 100 µM | > 100 µM | > 100 µM |  | > 100 µM |  |  |  | 
7 | CC(Nc1n[nH]c(=O)c2c1nnn2Cc1ccccc1)c1ccccc1 (stereo unspecified) |  |  | > 100 µM | > 100 µM | > 100 µM | 24.7 µM | > 100 µM | > 100 µM | > 100 µM | > 100 µM | > 100 µM | > 100 µM and 63.3 µM |  | > 100 µM and 52.9 µM | > 100 µM and 24.7 µM | > 100 µM and 43.8 µM | > 100 µM and 26.8 µM | > 100 µM and 31 µM
8 | CC(Cc1ccc2c(c1)OCO2)N(C)C(=O)C1=CCN(C)CC1 (stereo unspecified) |  | > 100 µM | > 100 µM | > 100 µM | > 100 µM | > 100 µM | > 100 µM | > 100 µM | > 100 µM | > 100 µM | > 100 µM |  | > 100 µM | > 100 µM |  |  |  | 
9 | COc1ccccc1Cn1[nH]c(=O)c2cc([N+](=O)[O-])ccc21 | > 100 µM | > 100 µM | > 100 µM | > 100 µM | > 100 µM | > 100 µM | > 100 µM | > 100 µM | > 100 µM | > 100 µM | > 100 µM | 93.4 µM |  | > 100 µM |  |  |  | 
10 | O=C1Cc2ccccc2CCc2ccsc21 | > 100 µM |  | > 100 µM | > 100 µM | > 100 µM | > 100 µM | > 100 µM | > 100 µM | > 100 µM | > 100 µM | > 100 µM | > 100 µM |  | > 100 µM |  |  |  | 
11 | Cc1cc(C)nc(NS(=O)(=O)c2ccc(NC(=O)c3cccc4c(N)c5ccccc5nc34)cc2)n1 | > 100 µM | > 100 µM | > 100 µM | > 100 µM | > 100 µM |  | > 100 µM | > 100 µM | > 100 µM | > 100 µM | > 100 µM |  |  | > 100 µM |  |  |  | 
12 | O=C(Nc1ccc(S(=O)(=O)Nc2ncccn2)cc1)c1c2ccccc2nc2ccccc12 | > 100 µM | > 100 µM | > 100 µM | > 100 µM | > 100 µM | > 100 µM | > 100 µM | > 100 µM | > 100 µM | > 100 µM | > 100 µM | > 100 µM |  | > 100 µM |  |  |  | 
13 | O=C1c2c(ccc3c2CCCC3)CC1Cc1ccc2c(c1)CCCC2 (stereo unspecified) | > 100 µM | > 100 µM | > 100 µM | 71 µM | > 100 µM | > 100 µM | > 100 µM | > 100 µM | > 100 µM | > 100 µM | > 100 µM | 83.6 µM | 9.84 µM |  |  |  |  | 
14 | COc1ccc(/C=C(\Cl)c2ccc(OC)cc2)cc1 | > 100 µM | 99.1 µM | > 100 µM | > 100 µM | > 100 µM |  | > 100 µM | > 100 µM | > 100 µM | > 100 µM | > 100 µM | > 100 µM |  | > 100 µM |  |  |  | 
15 | COc1cc2c(cc1OCCCCN1CCN(CCCCOc3cc4c(cc3OC)C(=O)N3CCC[C@H]3C=N4)CC1)N=C[C@@H]1CCCN1C2=O | 0.0692 µM | 0.0347 µM |  | 0.676 µM | 0.0914 µM | 0.656 µM | 1.1 µM | 12 µM |  | 0.0936 µM | > 32 µM | 0.255 µM | 3.53 µM | 0.182 µM |  |  |  | 
16 | CSc1nc(C)c(CCCl)c(Cl)n1 | > 100 µM | > 100 µM | > 100 µM | > 100 µM | > 100 µM | > 100 µM | > 100 µM | > 100 µM | > 100 µM | > 100 µM | > 100 µM |  | > 100 µM | > 100 µM |  |  |  | 
17 | CC[C@H](C)[C@H]1NC(=O)[C@@H](NC(=O)[C@@H](CC(C)C)N(C)C(=O)C2CCCN2C(=O)[C@H](C)O)[C@@H](C)OC(=O)[C@H](Cc2ccccc2)N(C)C(=O)[C@@H]2CCCN2C(=O)[C@H](CC(C)C)NC(=O)[C@@H](C)C(=O)[C@H](C(C)C)OC(=O)C[C@@H]1O (stereo partly specified) |  | < 0.00625 µM | 0.0213 µM | < 0.00625 µM |  | 0.0205 µM | > 14.5 µM | 0.0078 µM | > 62.5 µM | 0.0257 µM | < 0.00625 µM |  |  |  |  |  |  | 
18 | CCOC(=O)NC(=S)NC(C)c1ccccc1 (stereo unspecified) |  | > 100 µM | > 100 µM | > 100 µM | > 100 µM | > 100 µM |  | > 100 µM | > 100 µM | > 100 µM |  |  | > 100 µM | > 100 µM |  |  |  | 

— PubChem BioAssay (NCI)
